Results: patent US20240167030A1, “METHODS AND COMPOSITIONS FOR ACCELERATING OLIGODENDROCYTE MATURATION” (Case Western Reserve University, priority 2021, published 2024)

Experiments:
Type in all cases: cell-based, mouse
oligodendrocytes = assay: RNA-seq gene set enrichment analysis (GSEA) of SOX6 knockout oligodendrocytes; details: SOX6 knockout vs control (sgNTC) oligodendrocytes, day 3 of differentiation
From the text: (§1) Generation of mouse CRISPR KO OPCs: CRISPR knockout (KO) OPCs were created following a similar protocol used previously (Allan et al., 2020; Tripathi et al., 2019). In brief, guides were selected from the Brie library (Doench et al., 2016), cloned into the linearized CRISPRv2 backbone (Addgene 52961) (Sanjana et al., 2014), and sequence verified by sanger sequencing. HEK293T cells (Clonetech) were than transfected using lenti-X shots (manufacturer's protocol, Clonetech). Transfection media was replaced with N2B27 base media the following day. Lentivirus containing N2B27 was then collected after an additional 2 days, filtered, and supplemented with OPC growth factors PDGFA and FGF2 and added to OPCs at a ratio of 1:2 viral media to OPC growth media. The viral media was switched out for virus-free OPC growth the next day and allowed to recover for an additional 2 days. At this point, infected OPCs were selected for 96 hours in OPC growth media supplemented with a lethal dose of puromcyin (500 ng/mL). OPCs were allowed to recover in selection free media for at least 24 hours prior to being aliquoted and frozen down. For all experiments, infected CRISPR KO and non-targeting control OPCs were derived from the same original batch of EpiSC-derived mouse OPCs. qPCR was performed to validate a reduction of gene targets for each batch of CRISPR KO OPCs generated.
Bulk RNA-seq sample preparation and alignment: OPCs were lysed in TRIzol and RNA was isolated as described for qPCR. Purified RNA was then submitted to Novogene for library preparation and sequencing on the Illumina NovaSeq (150 bp paired end). For gene expression analysis, reads were aligned to the mm10 genome and quantified in transcripts per million (TPM) values using salmon 0.14.1 (github dot com slash COMBINE-lab slash salmon). Transcripts were summarized as gene-level TPM abundances with tximport. A gene with TPM>1 was considered expressed. Differential expression analysis was performed using DESEQ2 (bioconductor.org slash packages slash release slash bioc slash html slash DESeq2 dot html). Significant genes were called based on p-adj and fold change values as described in the results section.
RNA-seq was then performed on SOX6 knockout OPCs and differentiating oligodendrocyte cultures compared to non-targeting controls (FIGS. 10B and 11A). In agreement with binding at nearly all super-enhancers in OPCs, Sox6 knockout OPCs harbored a reduction in OPC signature genes and transcription factors such as Cspg4 and Sox10 (FIGS. 11A-11C). In differentiating oligodendrocytes, loss of SOX6 led to a reduction in Sox6 condensate gene expression (FIGS. 10B, 10C, and 11D). In agreement with these condensate genes stabilizing genes transiently expressed by intermediate oligodendrocytes, SOX6 knockout oligodendrocytes harbored a significant reduction in intermediate oligodendrocyte gene expression (FIGS. 10D and 11E).

SOX6 = assay: Western blot of SOX6 in CRISPR-Cas9 knockout OPCs; details: knockout OPCs compared to non-targeting control (sgNTC)
From the text: as §1, with “At this point, infected OPCs were selected for 96 hours in OPC growth media supplemented with a lethal dose of puromcyin (500 ng/mL). OPCs were allowed to recover in selection free media for at least 24 hours prior to being aliquoted and frozen down. For all experiments, infected CRISPR KO and non-targeting control OPCs were derived from the same original batch of EpiSC-derived mouse OPCs. qPCR was performed to validate a reduction of gene targets for each batch of CRISPR KO OPCs generated.” left out
Western blot: For cell culture derived protein samples, at least 1 million OPCs were collected and lysed in RIPA buffer (Sigma) supplemented with protease and phosphatase inhibitor (78441, Thermo Fisher) for at least 15 minutes and cleared by centrifugation at 13,000 g at 4° C. for 15 minutes. Protein concentrations were determined using the Bradford assay (Bio-Rad Laboratories). […] Membranes were then imaged and analyzed using Image Studio™ software. […]

[1] = system: SOX6 biomolecular condensates; assay: confocal immunofluorescence coupled with RNA-FISH of Sox6 condensates in intermediate oligodendrocytes; details: upon addition of the drug
From the text: Given the massive density of SOX6, an inherently disordered protein, at super-enhancer associated genes that increase sharply in intermediate oligodendrocytes and then decrease in myelinating oligodendrocytes, it was hypothesized that these regions represent SOX6 biomolecular condensates that stabilize, not inhibit, the intermediate oligodendrocyte state (FIGS. 8F and 8G) (Daneshvar et al., 2020; Henninger et al., 2020; Hnisz et al., 2017; Sabari et al., 2018). Performing high resolution confocal microscopy of immunofluorescence coupled with RNA-FISH confirmed Sox6 puncta in intermediate oligodendrocytes that co-localized with the predicted Sox6 aggregate gene Bcas1, whereas this co-localization was severely diminished at the non-aggregate gene Gapdh.

Molecule	GSEA of SOX6 aggregate (condensate) genes (oligodendrocytes)	GSEA of in vivo OPC signature genes (oligodendrocytes)	GSEA of in vivo intermediate oligodendrocyte signature genes (oligodendrocytes)	GSEA of in vivo myelinating oligodendrocyte signature genes (oligodendrocytes)	SOX6 expression (SOX6)	effect on Sox6 biomolecular condensates [1]
sgSox6 g1: single guide RNA for CRISPR-Cas9 SOX6 knockout, sequence TTGACGGAATGAACTGTACG (listed as DNA, chemistry not given here)	significant depletion	significant depletion	significant depletion	enrichment	strong reduction	
sgSox6 g2: single guide RNA for CRISPR-Cas9 SOX6 knockout, sequence AGAACACGCTTTGAGAACCT (listed as DNA, chemistry not given here)	significant depletion	significant depletion	significant depletion	enrichment	strong reduction	
Cc1sc2c(c1C)C(c1ccc(Cl)cc1)=N[C@@H](CC(=O)OC(C)(C)C)c1nnc(C)n1-2 [JQ1]						dissolved
